Laboratory results as given in patent US10670605B2, “Cysteine reactive probes and uses thereof” (The Scripps Research Institute, priority 2015, dated 2020).
One block for each compound: values may come before it.

Key:
Assay in all cases: Competitive isoTOP-ABPP, cell lysates;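 for isoTOP-ABPP reactivity profile ratio, P09211 C48: Heavy/light ratio DMSO over fragment-treated so higher means more cysteine engagement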;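 for isoTOP-ABPP reactivity profile ratio, Q15084 C190: Heavy/light ratio DMSO over fragment-treated so higher means more cysteine engagement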
Assay type in all cases: binding
[1] = biological target: T1, UBE2S C118 (Q16763) (Homo sapiens, UniProt Q16763)
T1 sequence (Q16763 1-222): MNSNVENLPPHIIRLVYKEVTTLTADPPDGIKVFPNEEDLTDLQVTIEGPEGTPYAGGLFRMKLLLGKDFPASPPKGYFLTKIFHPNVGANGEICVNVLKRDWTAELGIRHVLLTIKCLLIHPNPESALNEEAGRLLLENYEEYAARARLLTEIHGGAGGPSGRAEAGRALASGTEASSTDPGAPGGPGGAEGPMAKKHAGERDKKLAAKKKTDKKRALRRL

[2] = biological target: GSTP1 C48 (P09211) (Homo sapiens, UniProt P09211);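 for isoTOP-ABPP reactivity profile ratio, P09211 C48: Heavy/light ratio DMSO over fragment-treated so higher means more cysteine engagement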
[3] = biological target: T2, UCHL3 C95 (P15374) (Homo sapiens, UniProt P15374)
T2 sequence (P15374 1-230): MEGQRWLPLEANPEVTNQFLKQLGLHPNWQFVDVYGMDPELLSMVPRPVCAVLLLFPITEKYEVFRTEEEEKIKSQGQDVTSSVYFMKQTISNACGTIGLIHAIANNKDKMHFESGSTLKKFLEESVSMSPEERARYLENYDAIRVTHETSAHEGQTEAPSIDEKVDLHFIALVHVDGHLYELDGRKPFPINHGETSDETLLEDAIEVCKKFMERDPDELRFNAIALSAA

[4] = biological target: XPO1 C34 (O14980) (Homo sapiens, UniProt O14980)
[5] = biological target: IDH1 C269 (O75874) (Homo sapiens, UniProt O75874); conditions: for R value (DMSO/fragment): in vitro
[6] = biological target: T3, PDIA6 C190 (Q15084) (Homo sapiens, UniProt Q15084);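 for isoTOP-ABPP reactivity profile ratio, Q15084 C190: Heavy/light ratio DMSO over fragment-treated so higher means more cysteine engagement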
T3 sequence (Q15084 20-440): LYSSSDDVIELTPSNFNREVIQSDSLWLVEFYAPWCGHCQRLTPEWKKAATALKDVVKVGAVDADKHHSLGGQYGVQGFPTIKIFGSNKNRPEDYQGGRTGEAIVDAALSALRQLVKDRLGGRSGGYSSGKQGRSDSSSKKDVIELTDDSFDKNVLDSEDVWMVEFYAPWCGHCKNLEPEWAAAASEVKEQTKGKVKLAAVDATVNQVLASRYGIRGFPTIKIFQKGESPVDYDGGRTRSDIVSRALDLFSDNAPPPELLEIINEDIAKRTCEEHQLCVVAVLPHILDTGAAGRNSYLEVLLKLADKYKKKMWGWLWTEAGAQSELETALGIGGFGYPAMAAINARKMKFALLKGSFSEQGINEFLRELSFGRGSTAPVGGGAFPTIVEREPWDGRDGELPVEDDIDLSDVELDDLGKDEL

[7] = biological target: ZNF217 C286 (O75362) (Homo sapiens, UniProt O75362)
Chain of ZNF217 C286 (O75362) (O75362 whole entry): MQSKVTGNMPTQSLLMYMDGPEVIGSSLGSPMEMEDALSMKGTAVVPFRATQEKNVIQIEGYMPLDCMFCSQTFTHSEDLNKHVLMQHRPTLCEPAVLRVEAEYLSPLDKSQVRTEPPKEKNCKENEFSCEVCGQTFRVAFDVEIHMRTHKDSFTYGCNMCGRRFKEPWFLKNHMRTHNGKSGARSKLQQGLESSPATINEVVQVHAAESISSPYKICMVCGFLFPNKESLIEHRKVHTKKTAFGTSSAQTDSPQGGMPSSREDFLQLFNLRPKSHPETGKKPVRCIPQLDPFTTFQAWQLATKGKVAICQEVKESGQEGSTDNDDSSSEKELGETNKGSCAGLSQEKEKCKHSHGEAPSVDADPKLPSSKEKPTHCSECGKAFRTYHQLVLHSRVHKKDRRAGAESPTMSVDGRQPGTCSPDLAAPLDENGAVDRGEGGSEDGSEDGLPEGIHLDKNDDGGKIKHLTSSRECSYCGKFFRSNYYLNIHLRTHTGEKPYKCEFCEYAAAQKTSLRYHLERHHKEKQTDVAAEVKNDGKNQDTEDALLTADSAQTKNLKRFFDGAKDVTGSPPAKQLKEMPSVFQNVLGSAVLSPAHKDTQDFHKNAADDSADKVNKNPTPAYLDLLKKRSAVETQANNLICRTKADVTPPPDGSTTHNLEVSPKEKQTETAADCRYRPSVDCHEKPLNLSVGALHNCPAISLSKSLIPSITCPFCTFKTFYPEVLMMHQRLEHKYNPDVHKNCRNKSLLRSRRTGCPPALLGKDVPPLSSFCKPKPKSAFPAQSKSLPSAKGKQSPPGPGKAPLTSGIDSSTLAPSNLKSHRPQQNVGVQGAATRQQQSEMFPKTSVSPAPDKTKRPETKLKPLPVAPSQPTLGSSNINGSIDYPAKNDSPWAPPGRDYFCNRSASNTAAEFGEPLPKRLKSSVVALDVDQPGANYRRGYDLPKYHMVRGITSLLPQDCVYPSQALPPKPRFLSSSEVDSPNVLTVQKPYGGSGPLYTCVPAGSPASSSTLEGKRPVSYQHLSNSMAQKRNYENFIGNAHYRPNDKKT

Chain of IDH1 C269 (O75874) (O75874 whole entry, the tested form may be a part): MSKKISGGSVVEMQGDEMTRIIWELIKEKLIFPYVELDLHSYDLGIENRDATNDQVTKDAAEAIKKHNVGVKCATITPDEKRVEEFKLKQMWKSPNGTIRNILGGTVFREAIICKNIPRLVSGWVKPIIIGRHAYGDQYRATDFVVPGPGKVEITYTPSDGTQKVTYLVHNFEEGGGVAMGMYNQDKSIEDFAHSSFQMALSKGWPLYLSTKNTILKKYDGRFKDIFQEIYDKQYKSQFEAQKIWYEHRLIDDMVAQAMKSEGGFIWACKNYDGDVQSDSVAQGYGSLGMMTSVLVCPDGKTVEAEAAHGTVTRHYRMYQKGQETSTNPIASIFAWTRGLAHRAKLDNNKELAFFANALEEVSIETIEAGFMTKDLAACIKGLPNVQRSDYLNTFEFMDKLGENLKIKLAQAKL
Chain of XPO1 C34 (O14980) (O14980 whole entry, the tested form may be a part): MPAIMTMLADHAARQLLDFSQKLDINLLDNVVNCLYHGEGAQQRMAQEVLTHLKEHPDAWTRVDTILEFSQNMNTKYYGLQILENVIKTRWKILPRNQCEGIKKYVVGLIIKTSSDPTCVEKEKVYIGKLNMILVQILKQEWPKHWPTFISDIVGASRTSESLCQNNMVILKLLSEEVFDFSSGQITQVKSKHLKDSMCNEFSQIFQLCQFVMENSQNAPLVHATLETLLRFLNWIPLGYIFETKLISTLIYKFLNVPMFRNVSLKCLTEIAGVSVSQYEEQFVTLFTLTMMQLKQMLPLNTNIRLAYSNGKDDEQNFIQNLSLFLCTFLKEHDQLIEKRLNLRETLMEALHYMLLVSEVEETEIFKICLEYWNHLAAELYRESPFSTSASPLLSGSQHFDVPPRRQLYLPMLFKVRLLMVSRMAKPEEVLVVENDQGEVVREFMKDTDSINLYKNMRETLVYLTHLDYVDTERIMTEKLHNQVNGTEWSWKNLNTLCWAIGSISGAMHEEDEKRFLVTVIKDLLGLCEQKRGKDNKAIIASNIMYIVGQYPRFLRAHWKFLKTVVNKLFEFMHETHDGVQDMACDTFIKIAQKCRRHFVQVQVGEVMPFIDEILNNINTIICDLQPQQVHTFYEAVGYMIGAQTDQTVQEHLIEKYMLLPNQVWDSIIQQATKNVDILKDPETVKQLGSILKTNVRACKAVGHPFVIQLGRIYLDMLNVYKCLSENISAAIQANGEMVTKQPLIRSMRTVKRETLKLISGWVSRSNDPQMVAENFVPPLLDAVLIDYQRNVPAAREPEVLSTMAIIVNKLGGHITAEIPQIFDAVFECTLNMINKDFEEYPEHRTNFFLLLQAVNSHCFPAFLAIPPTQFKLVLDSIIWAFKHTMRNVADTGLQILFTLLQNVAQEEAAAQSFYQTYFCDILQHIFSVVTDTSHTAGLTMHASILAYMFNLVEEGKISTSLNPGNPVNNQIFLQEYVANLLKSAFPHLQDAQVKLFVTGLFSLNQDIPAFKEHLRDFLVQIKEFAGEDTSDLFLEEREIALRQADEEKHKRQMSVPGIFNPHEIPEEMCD
Chain of GSTP1 C48 (P09211) (P09211 whole entry, the tested form may be a part): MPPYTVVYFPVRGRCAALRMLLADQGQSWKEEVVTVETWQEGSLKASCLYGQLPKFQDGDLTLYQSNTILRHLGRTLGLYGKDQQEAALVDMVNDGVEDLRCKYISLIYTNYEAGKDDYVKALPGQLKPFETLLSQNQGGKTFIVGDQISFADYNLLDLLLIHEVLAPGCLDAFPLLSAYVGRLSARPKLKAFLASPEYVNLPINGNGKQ

isoTOP-ABPP reactivity profile ratio, Q16763_C118 ([1]; 500 μm, in-vitro_ramos_231): 0.8 | isoTOP-ABPP reactivity profile ratio, P09211_C48 ([2]; 500 μm, in-vitro_ramos_231): 0.9 | isoTOP-ABPP reactivity profile ratio, P15374_C95 ([3]; 500 μm, in-vitro_ramos_231): 0.8 | isoTOP-ABPP reactivity profile ratio, O14980_C34 ([4]; 500 μm, in-vitro_ramos_231): 0.8 | isoTOP-ABPP reactivity profile ratio, O75874_C269 ([5]; 500 μm, in-vitro_ramos_231): 0.8 | isoTOP-ABPP reactivity profile ratio, Q15084_C190 ([6]; 500 μm, in-vitro_ramos_231): 1.0
Structure (SMILES): O=C(CCl)NC1C(O)OC(CO)C(O)C1O (mixture of isomers) [compound 44]

R value (DMSO/fragment) ([1]; 500 μM, in vitro, MDA-MB-231): 4.2 | R value (DMSO/fragment) ([1]; 500 μM, invitro, ramos): 6.9 | R value (DMSO/fragment) ([2]; 500 μM, in vitro, MDA-MB-231): 3.1 | R value (DMSO/fragment) ([2]; 500 μM, invitro, ramos): 1.6 | R value (DMSO/fragment) ([3]; 500 μM, invitro, ramos): 1.8 | R value (DMSO/fragment) ([4]; 500 μM, in vitro, MDA-MB-231): 2.8 | R value (DMSO/fragment) ([4]; 500 μM, invitro, ramos): 4.6 | R value (DMSO/fragment) ([7]; 500 μM, in vitro, MDA-MB-231): 20.0 | R value (DMSO/fragment) ([7]; 500 μM, invitro, ramos): 20.0 | R value (DMSO/fragment) ([5]; 500 μM, MDA-MB-231): 20.0 | R value (DMSO/fragment) ([6]; 500 μM, invitro, ramos): 15.4
Structure (SMILES): COc1ccc2c(c1)CCCN2C(=O)CCl [compound 2]

R value (DMSO/fragment) ([1]; 250 μM, in vitro, MDA-MB-231): 1.2 | R value (DMSO/fragment) ([2]; 250 μM, in vitro, MDA-MB-231): 3.2 | R value (DMSO/fragment) ([2]; 250 μM, in vitro, Ramos): 0.5 | R value (DMSO/fragment) ([3]; 250 μM, in vitro, Ramos): 0.9 | R value (DMSO/fragment) ([4]; 250 μM, in vitro, MDA-MB-231): 1.0 | R value (DMSO/fragment) ([4]; 250 μM, in vitro, Ramos): 0.2 | R value (DMSO/fragment) ([7]; 250 μM, in vitro, MDA-MB-231): 1.7 | R value (DMSO/fragment) ([5]; 250 μM, MDA-MB-231): 1.6 | R value (DMSO/fragment) ([5]; 250 μM, Ramos): 0.6 | R value (DMSO/fragment) ([6]; 250 μM, in vitro, MDA-MB-231): 1.8 | R value (DMSO/fragment) ([6]; 250 μM, in vitro, Ramos): 1.2
Structure (SMILES): COc1ccc(C2CC(c3cccs3)=NN2C(=O)CCl)cc1 (stereo not drawn) [compound 4]

isoTOP-ABPP ratio, P09211_C48 ([2]; 500 μM, invitro, 231): 1.2 | isoTOP-ABPP ratio, P15374_C95 ([3]; 500 μM, invitro, 231): 1.1 | isoTOP-ABPP ratio, O14980_C34 ([4]; 500 μM, invitro, 231): 1.2 | isoTOP-ABPP ratio O75362_C286 ([7]; 500 μM, invitro, 231): 0.9 | isoTOP-ABPP ratio, Q15084_C190 ([6]; 500 μM, invitro, 231): 1.1
Structure (SMILES): CNS(=O)(=O)C=Cc1ccc2c(ccn2Cc2ccccc2)c1 [compound 6]
